Results taken from patent publication US8512965B2, “Methods of identifying ligands to sour-taste receptors comprising PKD1L3 and PKDPKD2L1” (Duke University, priority 2006, dated 2013).
One block for each compound: values may come before it.

What was measured:
PKD1L3/PKD2L1 = target: T1, PKD1L3/PKD2L1 (Mus musculus, UniProt A2A259+Q2EG98, I1053S/I114V/I482V/L203V/Q202H/Y438D); test: Calcium imaging (fluo-4/fura-red) of HEK293T cells transiently co-expressing PKD1L3 and PKD2L1; type: cell-based, murine; settings: for calcium response upon stimulation: pH 2.6
T1 construct: HA (N); expressed in transfected cells; host or cells: HEK293T
T1 sequence (Q2EG98 21-2151 I1053S): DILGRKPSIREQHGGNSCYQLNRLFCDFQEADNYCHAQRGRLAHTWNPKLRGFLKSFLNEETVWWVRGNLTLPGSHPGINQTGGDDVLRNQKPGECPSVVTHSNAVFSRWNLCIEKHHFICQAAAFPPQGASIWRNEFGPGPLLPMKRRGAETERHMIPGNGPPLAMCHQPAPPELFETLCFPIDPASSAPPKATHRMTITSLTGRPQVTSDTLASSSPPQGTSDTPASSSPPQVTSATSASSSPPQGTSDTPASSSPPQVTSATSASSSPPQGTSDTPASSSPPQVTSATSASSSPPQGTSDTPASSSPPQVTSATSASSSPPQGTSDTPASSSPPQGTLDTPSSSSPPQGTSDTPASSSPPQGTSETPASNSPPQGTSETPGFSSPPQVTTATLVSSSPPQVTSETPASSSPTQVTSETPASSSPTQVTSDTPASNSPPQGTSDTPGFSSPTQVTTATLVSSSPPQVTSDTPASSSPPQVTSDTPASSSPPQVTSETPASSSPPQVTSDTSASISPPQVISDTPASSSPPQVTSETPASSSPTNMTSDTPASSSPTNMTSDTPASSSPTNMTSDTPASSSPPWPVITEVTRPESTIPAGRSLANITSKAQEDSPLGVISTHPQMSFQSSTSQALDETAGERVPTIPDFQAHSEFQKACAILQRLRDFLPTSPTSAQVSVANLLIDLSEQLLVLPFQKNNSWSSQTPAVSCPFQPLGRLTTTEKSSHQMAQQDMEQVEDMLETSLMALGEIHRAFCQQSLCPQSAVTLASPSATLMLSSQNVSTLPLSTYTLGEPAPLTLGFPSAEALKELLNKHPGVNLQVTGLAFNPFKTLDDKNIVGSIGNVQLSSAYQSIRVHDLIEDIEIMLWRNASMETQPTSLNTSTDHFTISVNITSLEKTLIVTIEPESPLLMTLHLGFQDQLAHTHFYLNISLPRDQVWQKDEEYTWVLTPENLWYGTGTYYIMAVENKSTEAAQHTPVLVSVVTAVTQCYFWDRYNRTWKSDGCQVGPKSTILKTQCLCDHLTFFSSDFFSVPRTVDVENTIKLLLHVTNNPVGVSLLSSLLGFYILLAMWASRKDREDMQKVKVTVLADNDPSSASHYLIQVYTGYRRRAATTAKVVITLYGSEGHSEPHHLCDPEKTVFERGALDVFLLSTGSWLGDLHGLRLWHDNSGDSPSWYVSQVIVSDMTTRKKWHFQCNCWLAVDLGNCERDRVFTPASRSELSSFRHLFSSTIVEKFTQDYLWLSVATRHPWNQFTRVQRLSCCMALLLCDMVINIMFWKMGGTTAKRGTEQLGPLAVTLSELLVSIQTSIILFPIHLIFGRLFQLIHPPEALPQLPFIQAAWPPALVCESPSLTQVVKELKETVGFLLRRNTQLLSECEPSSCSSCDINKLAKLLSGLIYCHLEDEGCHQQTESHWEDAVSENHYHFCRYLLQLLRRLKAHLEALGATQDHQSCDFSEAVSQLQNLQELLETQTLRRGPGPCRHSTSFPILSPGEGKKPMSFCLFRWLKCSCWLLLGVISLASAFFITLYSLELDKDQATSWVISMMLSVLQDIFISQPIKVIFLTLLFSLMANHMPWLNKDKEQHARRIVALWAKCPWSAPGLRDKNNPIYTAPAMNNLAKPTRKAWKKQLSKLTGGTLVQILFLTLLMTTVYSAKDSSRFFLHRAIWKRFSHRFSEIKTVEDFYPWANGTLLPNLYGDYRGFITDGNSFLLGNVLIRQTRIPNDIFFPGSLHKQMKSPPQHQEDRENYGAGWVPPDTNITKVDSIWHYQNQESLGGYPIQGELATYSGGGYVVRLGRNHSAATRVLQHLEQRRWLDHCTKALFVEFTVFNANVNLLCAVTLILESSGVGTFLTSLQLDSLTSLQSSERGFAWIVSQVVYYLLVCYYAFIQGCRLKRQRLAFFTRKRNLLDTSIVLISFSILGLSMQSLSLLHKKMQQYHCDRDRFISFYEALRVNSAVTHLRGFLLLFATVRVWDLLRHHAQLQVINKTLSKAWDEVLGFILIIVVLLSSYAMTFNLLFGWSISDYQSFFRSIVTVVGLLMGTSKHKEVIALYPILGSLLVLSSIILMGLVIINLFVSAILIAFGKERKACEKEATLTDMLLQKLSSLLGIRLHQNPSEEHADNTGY
T1 sequence (A2A259 whole entry I114V/Q202H/L203V/Y438D/I482V): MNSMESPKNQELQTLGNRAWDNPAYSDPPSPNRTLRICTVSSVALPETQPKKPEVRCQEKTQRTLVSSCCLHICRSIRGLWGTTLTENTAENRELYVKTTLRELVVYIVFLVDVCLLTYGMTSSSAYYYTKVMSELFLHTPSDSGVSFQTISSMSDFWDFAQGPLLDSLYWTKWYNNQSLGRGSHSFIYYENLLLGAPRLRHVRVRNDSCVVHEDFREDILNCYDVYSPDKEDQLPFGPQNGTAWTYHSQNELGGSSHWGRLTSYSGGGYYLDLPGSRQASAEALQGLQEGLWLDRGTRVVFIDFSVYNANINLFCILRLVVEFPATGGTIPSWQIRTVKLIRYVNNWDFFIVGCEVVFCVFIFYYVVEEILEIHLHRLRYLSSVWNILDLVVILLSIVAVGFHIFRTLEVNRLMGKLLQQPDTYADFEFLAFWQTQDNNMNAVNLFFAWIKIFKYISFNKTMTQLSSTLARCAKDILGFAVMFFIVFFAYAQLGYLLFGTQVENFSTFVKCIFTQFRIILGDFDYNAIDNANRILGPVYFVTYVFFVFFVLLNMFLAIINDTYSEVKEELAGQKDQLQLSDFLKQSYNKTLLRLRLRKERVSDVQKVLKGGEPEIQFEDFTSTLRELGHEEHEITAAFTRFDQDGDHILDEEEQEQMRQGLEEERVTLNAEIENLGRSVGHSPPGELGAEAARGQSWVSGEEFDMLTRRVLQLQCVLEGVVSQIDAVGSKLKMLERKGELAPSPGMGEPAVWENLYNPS

[1] = at the same pH (Ganzevles and Kroeze, 1987; Makhlouf and Bum, 1972); cited from earlier work
taste cells = settings: cited from earlier work
[2] = test system: either PKD1L3 or PKD2L1, or neither of them; test: Calcium imaging of HEK293T cells expressing PKD1L3 or PKD2L1 alone, or neither; type: cell-based, murine; settings: treated with citric acid
[3] = cells expressing both PKD1L3 and PKD2L1, citric acid 25 mM, hydrochloric acid at the same pH

Structure (SMILES): [Cl-].[Na+] [NaCl]
calcium response upon stimulation (PKD1L3/PKD2L1): did not respond

Structure (SMILES): CC(=O)O [acetic acid]
sour taste relative to hydrochloric acid [1]: more sour than hydrochloric acid

Structure (SMILES): N=C(N)NC(=O)c1nc(Cl)c(N)nc1N [amiloride]
inhibition of function of the two protein heteromer (PKD1L3/PKD2L1; ASIC inhibitor / HCN inhibitor applied): not inhibited

Structure (SMILES): C[C@@H]1C[C@@H]([C@H](O)CC2CC(=O)NC(=O)C2)C(=O)[C@@H](C)C1 [cyclohexamide]
calcium response upon stimulation (PKD1L3/PKD2L1): did not respond

Structure (SMILES): Cl [hydrochloric acid]
calcium response upon stimulation (PKD1L3/PKD2L1): much less of a calcium response

Continued, in another order:

potency in activating PKD1L3/PKD2L1 heteromers relative to hydrochloric acid (PKD1L3/PKD2L1; at the same pH): more potent than hydrochloric acid
calcium response upon stimulation (PKD1L3/PKD2L1; [3]): responded
calcium response with extracellular calcium ions eliminated from the bath solution (PKD1L3/PKD2L1; cells expressing both proteins, no extracellular calcium): abolished
Structure (SMILES): O=C(O)CC(O)(CC(=O)O)C(=O)O [citric acid]
taste cells activated (taste cells; calcium imaging of taste bud slices (Caicedo et al., 2002; Richter et al., 2003)): 23-25%
potency as sour ligand relative to hydrochloric acid (taste cells; mouse taste tissue slices, same pH (Richter et al., 2003)): more potent sour ligand than hydrochloric acid
calcium response upon stimulation [2]: little or no calcium response
sour taste relative to hydrochloric acid [1]: more sour than hydrochloric acid

calcium response upon stimulation (PKD1L3/PKD2L1; [3]): did not respond
Structure (SMILES): C=C[C@H]1C[N@@]2CC[C@H]1C[C@H]2[C@H](O)c1ccnc2ccc(OC)cc12 [quinine]

calcium response upon stimulation (PKD1L3/PKD2L1; [3]): did not respond
Structure (SMILES): O=C1NS(=O)(=O)c2ccccc21 [saccharin]

calcium response upon stimulation (PKD1L3/PKD2L1; [3]): did not respond
Structure (SMILES): OC[C@H]1O[C@@](CO)(O[C@H]2O[C@H](CO)[C@@H](O)[C@H](O)[C@H]2O)[C@@H](O)[C@@H]1O [sucrose]
